# Source: patent US7687079B2, “Methods of treating ileus” (priority 2002, dated 2010)
# “Also recorded” adds a separate entry of the source.
# Experiments:
# [1] = test system: mice subjected to surgical manipulation of the small intestine; assay: intestinal transit of fluorescein-labeled dextran after intestinal manipulation (IM); type: in vivo, mouse
# Text: Surgical Manipulation. Mice were anesthetized with inhaled isoflurane and the abdomen opened by midline laparotomy. The small intestine was eventrated and gently compressed along its entire length using moistened sterile cotton applicators. This procedure is designed to simulate “running” of the bowel commonly performed during abdominal surgery in the clinical setting. The bowel was repositioned in the abdominal cavity and the incision closed by two layers of continuous sutures. The duration of the procedure was approximately 15 minutes and the animals moved freely about their cage within 20 minutes of withdrawal of anesthetic.
# CO Inhalation Treatment. Mice housed in cages were placed in plexiglass chambers that were continuously ventilated with air or with air containing CO (250 ppm). […]
# Mice were anesthetized and killed by exsanguination at the end of the 24-hour chamber treatment with CO or room air. In vitro circular muscle mechanical activity was measured as previously described in Eskandari et al. (Am. J. Physiol. 273:G727-G734 (1997)). […] Contractile activity was calculated by integrating the area under the trace. […] Intestinal transit was measured in controls and manipulated animals 24 hours postoperatively by evaluating the intestinal distribution of a non-absorbable fluorescein-labeled dextran (MW 70,000). […]
# IL-6 mRNA = IL-6 mRNA in muscularis after IM (real time RT-PCR); type: in vivo, mouse; details: IM + CO, 3 and 6 hr time points
# Experimental: Pro- and anti-inflammatory gene expression was determined by real time RT-PCR. The small intestinal muscularis externa was collected at 4 time points (3, 6, 12, and 24 hr) postoperatively and snap frozen in liquid nitrogen. Total RNA extraction was performed using the guanidium-thiocyanate phenol-chloroform extraction method as described in Eskandari et al. (Id.) RNA pellets were resuspended in RNA-secure resuspension solution (Ambion Inc., Austin, Tex.), followed by removal of potential contaminating DNA by treatment with DNase I (DNA-Free Kit, Ambion Inc., Austin, Tex.). Equal aliquots (5 μg) of total RNA from each sample were quantified by spectrophotometry (wavelength […]). Peak mRNA expression was quantified in duplicate by SYBR Green two-step, real-time RT-PCR. β-actin was used as the endogenous reference. […] Real-time PCR data were plotted as the ΔRn fluorescence signal versus the cycle number. […] Quantification of mRNA expression was normalized to β-actin and calculated relative to control using the comparative CT method.
# To exclude PCR amplification of contaminating genomic DNA, RT-negative controls (samples containing RNA which was not reverse transcribed) were included in each PCR reaction. […] PCR amplification efficiency of each target cDNA was measured by determining the colinearity of serial dilutions. […]
smiles,measurement,setting,value
"[C-]#[O+] [CO, carbon monoxide]","intestinal transit (GC, distribution of labeled dextran)","[1]; IM + CO 250 ppm vs IM, 24 hours postoperatively",significantly improved; also recorded: more distal distribution; also recorded: significant increase
same,intestinal transit,"[1]; unoperated mice, CO 250 ppm alone",slight insignificant shift
same,manipulation-induced IL-6 gene expression,IL-6 mRNA,no effect
